# Assay results published in patent US20070122501A1, “Formulations containing astragalus extracts and uses thereof” (Hong Kong University of Science and Technology, priority 2003, published 2007).
# Experiments:
# [1] = tested on: aging (PD34) adult keratinocytes; assay: Scratch (wound healing) assay in aging adult keratinocytes (FIGS. 6, 8, 9); type: cell-based, human; details: FIG. 8, comparison of extract and PDGF
# Text: (§1) Cell lines used in these experiments were obtained from Cascade Biologics, Inc. Neonatal keratinocytes (HEKneo-P) were obtained from a pool generated from three donors, designated HEKn(12), PD 8.46; HEKn(15), PD 9.3; and HEKn(16), PD 5.16. Adult keratinocytes were obtained from a single donor, designated HEKa(18). The terms “neonatal” and “adult” refer to the age of the donor, while the terms “young” and “aging” or “late passage” refer to the age of the cell culture, and correspond to the number of population doublings (indicated as PD no.).
# (§2) Cells are plated in flasks (5×10^5 cells per flask) and cultured for two days in a humidified chamber at 5% CO2, 37° C. To create the “wound”, a 2 ml plastic pipette is gently dragged to “scratch” the cell surface. The ideal wound is approximately 2-3 mm wide and 50 mm long (along the long axis of the tissue culture flask). The cells are retreated with medium containing either vehicle (DMSO; control sample) or test compositions at multiple concentrations. […]
# (§3) Amount of wound closure is determined by measuring the width of the wound over time for extract-treated samples relative to vehicle-treated or other control cells. […] Percentage of wound healing is calculated by the following formula: WH=100−[100×Wn/W0], where Wn is the width of the wound on day n and W0 is the width of the wound on day one (immediately after scratching).
# [2] = tested on: late passage (PD40) neonatal keratinocytes; assay: Scratch (wound healing) assay in late passage / aging neonatal keratinocytes (FIGS. 7, 10); type: cell-based, human; details: FIG. 10
# Text: as §1, §2, §3
substance,measurement,setting,value
PDGF,state of scratched cell layer by day 4,[1],confluent or near-confluent
same,wound closure after four days,[2],complete or near-complete wound closure
